The target in one series is T1, UGT1A4 (Homo sapiens, UniProt P22310).
T1 construct: purchased BD Gentest Corp. (Woburn, MA, USA); host or cells: baculovirus-infected insect cells
T1 sequence (P22310 29-534): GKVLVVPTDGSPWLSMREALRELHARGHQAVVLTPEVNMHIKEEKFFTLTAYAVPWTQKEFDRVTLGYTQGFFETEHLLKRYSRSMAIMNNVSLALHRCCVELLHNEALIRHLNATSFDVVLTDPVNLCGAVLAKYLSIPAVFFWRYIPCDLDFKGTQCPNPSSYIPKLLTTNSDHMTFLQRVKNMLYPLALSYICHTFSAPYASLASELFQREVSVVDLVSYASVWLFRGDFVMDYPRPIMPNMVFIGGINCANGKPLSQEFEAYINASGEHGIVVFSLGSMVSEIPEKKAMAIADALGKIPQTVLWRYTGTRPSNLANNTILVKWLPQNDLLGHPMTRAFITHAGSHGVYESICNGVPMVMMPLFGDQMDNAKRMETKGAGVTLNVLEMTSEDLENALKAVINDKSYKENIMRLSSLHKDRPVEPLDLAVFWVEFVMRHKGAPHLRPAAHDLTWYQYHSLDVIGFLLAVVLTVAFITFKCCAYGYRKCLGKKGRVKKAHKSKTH
The series can be described thus: Inhibition of recombinant UGT1A4 activity (TFP glucuronidation). It counts as biochemical. On the procedure:
TFP was used as the substrate for UGT1A4. Trifluoperazine glucuronide (TFPG) formation was measured using a modification of the method reported. […] Reactions were initiated by the addition of UDPGA and incubations were performed at 37°C in a shaking water bath for 20 min. Incubations were terminated by the addition of 4% acetic acid/96% methanol (0.2 mL) and then centrifuged at 20,500 ×g for 15 min. A 40 μL aliquot of the supernatant fraction was injected into the HPLC column. […] A gradient mobile phase consisting initially of 30 : 70, mobile phase A (acetonitrile) verse mobile phase B (0.5% formic acid/water) was brought to a composition of 90 : 10 in 10 min which was held for 7 min, all at a flow rate of 1 mL/min. Column eluant was monitored by UV absorbance 256 nm. […] The negative controls are the incubation without UDPGA.

The nature of series [1]: Calculation of possible maximum concentrations in blood. Also noted: species or system human. To be noted: calculated, after a single oral administration of Epimedium pubescens decoction.
[2] abbreviates: recombinant human UGT1A4, 50 μM TFP, mean ± SD, read-out: IC50 for inhibition of UGT1A4 activity.

Like-named read-outs stand apart in the source and are kept apart here.

For `COc1ccc(-c2oc3c(CC=C(C)C)c(O[C@@H]4O[C@H](CO)[C@@H](O)[C@H](O)[C@H]4O)cc(O)c3c(=O)c2O[C@@H]2O[C@@H](C)[C@H](O)[C@@H](O)[C@H]2O)cc1` [Icariin], on UGT1A4 (setting [2]), the IC50 is 42.8 ± 2.4 µM. Besides, the “Possible maximum concentration in human blood” value in series [1] is reported as “about 1.3 nM”.
Taken in the same sequence, the figures for `COc1ccc(-c2oc3c(CC=C(C)C)c(O[C@@H]4O[C@H](CO)[C@@H](O)[C@H](O)[C@H]4O)cc(O)c3c(=O)c2O)cc1` [Icariside I] were > 100 µM and ~0.1 nM.
Take `COc1ccc(-c2oc3c(CC=C(C)C)c(O)cc(O)c3c(=O)c2O)cc1` [Icaritin]: the 50% inhibitory concentration (IC50) on UGT1A4 is > 100 µM. Moreover, in series [1], the “Possible maximum concentration in human blood” value is recorded as ~1.5 nM.

Broadly, the IC50 is the concentration needed to halve the response being measured.

The values are drawn from article PMC3479967 (Evidence-based Complementary and Alternative Medicine : eCAM, 2012).
